{"source": "patent US20240067679A1", "about": "“SARS-COV-2 PROTEIN-DERIVED PEPTIDE AND VACCINE CONTAINING SAME” (Onco Therapy Science, Inc., priority 2021, published 2024)", "molecules": {"B1": {"name": "Peptide 12-responsive TCR-1 (TCR)", "alpha TRAV1-2 TRAJ20 CDR3": "CAVRDPRNDYKLSF", "beta TRBV27 TRBJ1-1 CDR3": "CATQVNTEAFF"}, "B2": {"name": "Peptide 10-responsive TCR (TCR)", "alpha TRAV8-6 TRAJ36 CDR3": "CAITGANNLFF", "beta TRBV20-1 TRBJ1-5 CDR3": "CSAEDRGSNSNQPQHF"}, "B3": {"name": "Peptide 12-responsive TCR-2 (TCR)", "alpha TRAV24 TRAJ29 CDR3": "CAFLSGNTPLVF", "beta TRBV27 TRBJ1-6 CDR3": "CASSPAAYSPLHF"}}, "key": {"[1]": {"test_system": "HLA-A*02:01-expressing target cells (T2 cells)", "assay_type": "cell-based, human"}, "[2]": {"test_system": "HLA-A*24:02-expressing target cells (TISI cells)", "assay_type": "cell-based, human"}, "[3]": {"test_system": "HLA-A*02:01-expressing target cells (T2 cells)", "assay_type": "cell-based, human", "remark": "listed apart in the source"}, "[4]": {"test_system": "HLA-A*02:06-expressing target cells (HEV0011 cells)", "assay_type": "cell-based, human"}, "[5]": {"test_system": "HLA-A*02:06-expressing target cells (HEV0011 cells)", "assay_type": "cell-based, human", "remark": "listed apart in the source"}, "[6]": {"test_system": "HLA-A*24:02-expressing target cells (TISI cells)", "assay_type": "cell-based, human", "remark": "listed apart in the source"}, "[7]": {"target": "T1, SARS-CoV-2 ORF1ab peptide on HLA-A*02:01 (human)", "T1 peptide": "NVLAWLYAAV", "assay": "cytokine release"}, "[8]": {"target": "T2, SARS-CoV-2 ORF1ab peptide on HLA-A*02:01 (human)", "T2 peptide": "TLMIERFVSL", "assay": "cytokine release"}, "[9]": {"conditions": "cells induced from HLA-A*02:01-positive PBMCs, peptide-pulsed T2 cells vs T2 cells not pulsed"}, "[10]": {"conditions": "cells induced from HLA-A*24:02-positive PBMCs, peptide-pulsed TISI cells vs TISI cells not pulsed"}, "[11]": {"conditions": "HLA-A*02:01-restricted CTL lines, peptide-pulsed T2 cells"}, "[12]": {"conditions": "cells induced from HLA-A*02:06-positive PBMCs, peptide-pulsed HEV0011 cells vs HEV0011 cells not pulsed"}, "[13]": {"conditions": "HLA-A*02:06-restricted CTL lines, peptide-pulsed HEV0011 cells"}}, "note": "Where two headings read alike, the source gives them in different places."}
{"molecule": "FGMSRIGMEV (a peptide derived from N polyprotein of SARS-CoV-2) [Peptide 9, SARS-CoV-2 N protein-derived 10 mer peptide, position 315]", "values": [{"measurement": "Peptide-specific IFN-γ production (ELISPOT)", "setting": "[1]; [9]", "result": "observed"}, {"measurement": "Peptide-specific IFN-γ production (ELISPOT)", "setting": "[2]; [10]", "result": "no peptide-specific IFN-γ production was observed"}]}
{"molecule": "FMIDVQQWGF (a peptide derived from ORF1ab polyprotein of SARS-CoV-2) [Peptide 15, SARS-CoV-2 ORF1ab-derived 10 mer peptide, position 6165]", "values": [{"measurement": "Peptide-specific IFN-γ production (ELISPOT)", "setting": "[1]; [9]", "result": "observed"}, {"measurement": "IFN-γ production by CTL lines (ELISA)", "setting": "[3]; [11]", "result": "observed"}, {"measurement": "Peptide-specific IFN-γ production (ELISPOT)", "setting": "[2]; [10]", "result": "no peptide-specific IFN-γ production was observed"}, {"measurement": "Peptide-specific IFN-γ production (ELISPOT)", "setting": "[4]; [12]", "result": "observed"}, {"measurement": "IFN-γ production by CTL lines (ELISA)", "setting": "[5]; [13]", "result": "observed"}]}
{"molecule": "FTYASALWEI [Peptide 7]", "values": [{"measurement": "Peptide-specific IFN-γ production (ELISPOT)", "setting": "[1]", "result": "observed"}, {"measurement": "IFN-γ production by CTL lines (ELISA)", "setting": "[3]", "result": "observed"}, {"measurement": "Peptide-specific IFN-γ production (ELISPOT)", "setting": "[2]", "result": "no peptide-specific IFN-γ production was observed"}, {"measurement": "Peptide-specific IFN-γ production (ELISPOT)", "setting": "[4]", "result": "observed"}, {"measurement": "IFN-γ production by CTL lines (ELISA)", "setting": "[5]", "result": "observed"}]}
{"molecule": "FVLWAHGFEL [Peptide 3]", "values": [{"measurement": "Peptide-specific IFN-γ production (ELISPOT)", "setting": "[1]", "result": "observed"}, {"measurement": "IFN-γ production by CTL lines (ELISA)", "setting": "[3]", "result": "observed"}, {"measurement": "Peptide-specific IFN-γ production (ELISPOT)", "setting": "[2]", "result": "observed"}, {"measurement": "IFN-γ production by CTL lines (ELISA)", "setting": "[6]", "result": "observed"}, {"measurement": "Peptide-specific IFN-γ production (ELISPOT)", "setting": "[4]", "result": "observed"}, {"measurement": "IFN-γ production by CTL lines (ELISA)", "setting": "[5]", "result": "observed"}, {"measurement": "Detection of tetramer-positive CD8-positive T cells recognizing the peptide", "setting": "CD8-positive T cells", "result": "detected"}]}
{"molecule": "LMYKGLPWNV [Peptide 2]", "values": [{"measurement": "Peptide-specific IFN-γ production (ELISPOT)", "setting": "[1]", "result": "observed"}, {"measurement": "IFN-γ production by CTL lines (ELISA)", "setting": "[3]", "result": "observed"}, {"measurement": "Peptide-specific IFN-γ production (ELISPOT)", "setting": "[2]", "result": "no peptide-specific IFN-γ production was observed"}, {"measurement": "Peptide-specific IFN-γ production (ELISPOT)", "setting": "[4]", "result": "not observed"}]}
{"molecule": "MMGFKMNYQV (a peptide derived from ORF1ab polyprotein of SARS-CoV-2) [Peptide 5, SARS-CoV-2 ORF1ab-derived 10 mer peptide, position 5982]", "values": [{"measurement": "Peptide-specific IFN-γ production (ELISPOT)", "setting": "[1]; [9]", "result": "observed"}, {"measurement": "Peptide-specific IFN-γ production (ELISPOT)", "setting": "[2]; [10]", "result": "no peptide-specific IFN-γ production was observed"}]}
{"molecule": "MMILSDDAV (a peptide derived from ORF1ab polyprotein of SARS-CoV-2) [Peptide 8, SARS-CoV-2 ORF1ab-derived 9 mer peptide, position 5147]", "values": [{"measurement": "Peptide-specific IFN-γ production (ELISPOT)", "setting": "[1]; [9]", "result": "not observed"}]}
{"molecule": "NVLAWLYAAV (a peptide derived from ORF1ab polyprotein of SARS-CoV-2) [Peptide 12, SARS-CoV-2 ORF1ab-derived 10 mer peptide, position 3466]", "values": [{"measurement": "Peptide-specific IFN-γ production (ELISPOT)", "setting": "[1]; [9]", "result": "observed"}, {"measurement": "IFN-γ production by CTL lines (ELISA)", "setting": "[3]; [11]", "result": "observed"}, {"measurement": "Peptide-specific IFN-γ production (ELISPOT)", "setting": "[2]; [10]", "result": "no peptide-specific IFN-γ production was observed"}, {"measurement": "Peptide-specific IFN-γ production (ELISPOT)", "setting": "[4]; [12]", "result": "observed"}, {"measurement": "IFN-γ production by CTL lines (ELISA)", "setting": "[5]; [13]", "result": "observed"}]}
{"molecule": "SLFDMSKFPL (a peptide derived from ORF1ab polyprotein of SARS-CoV-2) [Peptide 1, SARS-CoV-2 ORF1ab-derived 10 mer peptide, position 7041]", "values": [{"measurement": "Peptide-specific IFN-γ production (ELISPOT)", "setting": "[1]; [9]", "result": "observed"}, {"measurement": "Peptide-specific IFN-γ production (ELISPOT)", "setting": "[2]; [10]", "result": "no peptide-specific IFN-γ production was observed"}]}
{"molecule": "TLEPEYENSV [Peptide 13, SARS-CoV-2 ORF1ab-derived 10 mer peptide, position 5740]", "values": [{"measurement": "Peptide-specific IFN-γ production (ELISPOT)", "setting": "[1]; [9]", "result": "observed"}, {"measurement": "Peptide-specific IFN-γ production (ELISPOT)", "setting": "[2]; [10]", "result": "no peptide-specific IFN-γ production was observed"}]}
{"molecule": "TLMIERFVSL (a peptide derived from ORF1ab polyprotein of SARS-CoV-2) [Peptide 10, SARS-CoV-2 ORF1ab-derived 10 mer peptide, position 5245]", "values": [{"measurement": "Peptide-specific IFN-γ production (ELISPOT)", "setting": "[1]; [9]", "result": "observed"}, {"measurement": "IFN-γ production by CTL lines (ELISA)", "setting": "[3]; [11]", "result": "observed"}, {"measurement": "Peptide-specific IFN-γ production (ELISPOT)", "setting": "[2]; [10]", "result": "no peptide-specific IFN-γ production was observed"}, {"measurement": "Peptide-specific IFN-γ production (ELISPOT)", "setting": "[4]; [12]", "result": "observed"}, {"measurement": "IFN-γ production by CTL lines (ELISA)", "setting": "[5]; [13]", "result": "observed"}]}
{"molecule": "YMPASWVMRI (a peptide derived from ORF1ab polyprotein of SARS-CoV-2) [Peptide 4, SARS-CoV-2 ORF1ab-derived 10 mer peptide, position 3654]", "values": [{"measurement": "Peptide-specific IFN-γ production (ELISPOT)", "setting": "[1]; [9]", "result": "observed"}, {"measurement": "IFN-γ production by CTL lines (ELISA)", "setting": "[3]; [11]", "result": "observed"}, {"measurement": "Peptide-specific IFN-γ production (ELISPOT)", "setting": "[2]; [10]", "result": "no peptide-specific IFN-γ production was observed"}, {"measurement": "Peptide-specific IFN-γ production (ELISPOT)", "setting": "[4]; [12]", "result": "observed"}, {"measurement": "IFN-γ production by CTL lines (ELISA)", "setting": "[5]; [13]", "result": "observed"}]}
{"molecule": "YSFLPGVYSV (a peptide derived from ORF1ab polyprotein of SARS-CoV-2) [Peptide 14, SARS-CoV-2 ORF1ab-derived 10 mer peptide, position 3098]", "values": [{"measurement": "Peptide-specific IFN-γ production (ELISPOT)", "setting": "[1]; [9]", "result": "observed"}, {"measurement": "Peptide-specific IFN-γ production (ELISPOT)", "setting": "[2]; [10]", "result": "no peptide-specific IFN-γ production was observed"}]}
{"molecule": "YVYNPFMIDV (a peptide derived from ORF1ab polyprotein of SARS-CoV-2) [Peptide 11, SARS-CoV-2 ORF1ab-derived 10 mer peptide, position 6160]", "values": [{"measurement": "Peptide-specific IFN-γ production (ELISPOT)", "setting": "[1]; [9]", "result": "observed"}, {"measurement": "IFN-γ production by CTL lines (ELISA)", "setting": "[3]; [11]", "result": "observed"}, {"measurement": "Peptide-specific IFN-γ production (ELISPOT)", "setting": "[2]; [10]", "result": "observed"}, {"measurement": "IFN-γ production by CTL lines (ELISA)", "setting": "[6]; HLA-A*24:02-restricted CTL lines, peptide-pulsed TISI cells", "result": "observed"}, {"measurement": "Peptide-specific IFN-γ production (ELISPOT)", "setting": "[4]; [12]", "result": "observed"}, {"measurement": "IFN-γ production by CTL lines (ELISA)", "setting": "[5]; [13]", "result": "observed"}]}
{"molecule": "B1", "values": [{"measurement": "binding result", "setting": "[7]", "result": "recognises"}]}
{"molecule": "B2", "values": [{"measurement": "binding result", "setting": "[8]", "result": "recognises"}]}
{"molecule": "B3", "values": [{"measurement": "binding result", "setting": "[7]", "result": "recognises"}]}
